Assay results: patent US20060257875A1, “Affinity screening using "one-bead-one-compound" libraries” (Carlsberg A/S, priority 2003, published 2006)
Non-standard residues stand in square brackets, D forms with d. No end group written: not given here. T(Sa) = sialic acid threonine lactam (threonine bearing sialic acid, its amine closed onto the sugar)

Experiments:
[1] = tested on: PE-induced myocyte protein; test: Solid phase screening of Library 6 with unlabeled myocyte proteins; silver staining, on-bead tryptic digest; format: binding, neonatal Wistar rats; conditions: PE-Treated Myocytes
Method: (§1) Myocytes were prepared from 1 to 5 day old neonatal Wistar rats (University of Copenhagen) according to literature procedure described in Busk et al., 2002, Cardiovasc. Res., 56: 64-75 and plated into eight P10 culture plates at 6 million cells/plate.
Isolated proteins that bound to specific ligands were identified using peptide mass fingerprinting. Mass spectra were recorded on a Bruker Reflex m MALDI time-of-flight mass spectrometer (Bruker-Daltonics, Bremen, Germany) operated in the positive reflectron mode using delayed extraction. Measurements were performed using the following parameters: Power 83-84 V; lens 7.300. The sum of 200-300 shots was used for each spectrum.
The spectra were calibrated using bradykinin peptide. In some cases, internal mass calibration was performed using a porcine trypsin autolysis product Peptide masses were searched against peptide mass maps in the National Center for Biotechnology Information (NCBI) database using the following search engines found on the world wide web (www.) for each of: • MS-FIT (prospector.ucsf.edu/ucsfhtml/msfit.htm), • Profound (129.85.19.192/profound_biniWebProFound.exe), and • MASCOT (matrixscience.com).
A search was performed using the NCBI bacterial (E. coli) database and the mammalian databases for the isolated proteins from the E. coli and myocyte samples, respectively, and the Swiss Prot mammalian databases and the Swiss Prot viral databases were searched to identify the porcine macrophage proteins and proteins, respectively. A molecular mass range was estimated from 0-250 K Da, allowing a mass accuracy that varied from 0.1 Da (some cases 0.3 Da) for each peptide mass. A large pI range from 0-14 or 0-12 was considered for each search. If no proteins matched, the mass window was extended. Partial enzyme cleavages allowing for two missed cleavage sites and modification of cysteine by alkylation were considered in the search approaches. A protein was considered identified if the matched peptides covered at least 30% of the complete sequence. A match of less than 30% was considered in some cases, if prominent peaks were obtained. Usually, four or more peptides were used for identification. In some instances, hypothetical proteins or gene products, such as biochemical material, either RNA or protein, calculated from the expected expression of a gene and to which a function may be assigned based on sequence homology, were identified.
Protein was extracted from myocytes prepared as described above for Example 9, using a new procedure (to preserve the activity of metalloproteases) modified from existing protocols, primarily: Amott, et al., 1998, Anal. Biochem. 258: 1-18. The media was removed from plates and cells were washed with ice cold phosphate buffer (5 ml, 10 mM, pH 7.5, supplemented with 0.15 M NaCl,) to remove traces of media components. The adhered cells were treated for 10 minutes with ice cold phosphate buffer (2 mL, 10 mM, pH 7.5, augmented with 0.15 M NaCl, […] E-64, 10 μg/mL Leupeptin, and 10 μg/mL Pepstatin A). The cells were scraped off the plates and then lysed (on ice) in a sonicator (2×) using 10 seconds off/110 seconds on cycles.
The resulting suspension was augmented with CHAPS (1% w/v), KCl (50 mM), NaCl (0.5 M), ZnCl2 (0.1 mM), DTT (5 mM), and urea (2 M). After 10-15 minutes on ice, the solution was centrifuged for 10 minutes at 15,000 rpm at 4° C. The supernatant was removed and protein content quantified using the NanoOrange Protein test (Molecular Probes, Eugene, Oreg.): Total protein recovered: 195 μg for PE-induced cells and 200 μg for basal cells.
The protein solutions were dialyzed extensively against 20 mM MES (2-[N-Morpholino]ethanesulfonic acid) buffer pH 6.0, supplemented with 0.15 M NaCl and 1 mM ZnCl2 to remove excess detergent and urea. […]

[2] = tested on: normal/healthy myocyte proteins; test: Solid phase screening of small molecule biaryl Library 7 with labeled myocyte proteins; format: binding, neonatal Wistar rats; conditions: Normal Myocytes
Method: as §1
In another case, fluorescent dye Cyanine 3 (Cy 3) (Molecular Probes) was used to label the healthy/basal cells while Cyanine 2 (Cy 2) (Molecular Probes) was used to label the PE-treated cells. The labeling procedures were carried out according to the manufacturer's protocol. The protein solutions (0.35 mL, 100 μg for PE cells and 0.41 mL, 100 μg for basal cells) were dialyzed against a solution of 10 mM phosphate buffer, 0.15 M NaCl, pH 7.5 and then 1 M NaHCO3 (0.03-0.04 mL) was added to obtain a final pH between 8.0-9.0. For efficient labeling, […] fluor (5 μL solution was prepared by addition of […] of reconstituted fluorophore solution [1 nmol μL] and 3 μL of dry DMF) was used to label 50 μg of protein. The fluorophore and the protein solution are mixed thoroughly by vortexing. The samples are then centrifuged briefly in a microfuge and left on ice for 30 min in the dark. To stop the reaction, 10 mM lysine (1 μL) was added to the samples and the samples were mixed by vortexing and centrifuged briefly in a microfuge. The samples were left on ice for 10 min in the dark. The labeled protein solutions were dialyzed extensively against 10 mM phosphate buffer, 0.15 M NaCl, pH 7.5, to remove excess dye. Labeled samples were stored for at −70° C. in the dark until further use.
Alternatively, the fluorescent ligand library beads containing bound protein obtained as described in Examples 47, 48, 49 and 51 were sorted using a COPAS (250) NF Bead Sorter (Union Biometrica, Somerville, Mass.) equipped with a dual detector. Both the cyanine dyes used in the labeling procedure, namely Cy 2 (emission wavelength—510 nm) and Cy 3 (emission wavelength—570 nm) were simultaneously excited at […] The bead selection window was then set-up such that all beads containing significant green fluorescence and no red flourescence were isolated. The unselected beads were then resorted to obtain beads containing red fluorescence (proteins from basal cells). The selected red and green fluorescent beads were then sorted into brightly and less brightly fluorescent beads, to give an indication of either the strength of binding of the ligand to a particular protein or the amount of protein present in the sample binding to the ligand.
(§2) Ligands can be completely or partially identified by MALDI_TOF-MS whether or not the library is synthesized by ladder synthesis. […] The ligand is cleaved from the resin bead depending on the type of linker used. […] Peptide fragments (ladder synthesis) or single compounds were extracted from the bead with 0.5 AL CH3CN, then 0.5 FL 70% CH3CN/H2O. […] In the case of the acid labile Rink linker (Library 7), the compound was released from the bead by treatment with 95% TFA or 30 min. The TFA solution was evaporated and the cleaved compounds were extracted in 2 μL 70% acetonitrile+0.1% TFA. This mixture was then transferred to a stainless steel disc to which 0.4 μL of CHC matrix+1.0% TFA was added. An additional 0.4 μL of CHC matrix+1.0% TFA was added to complete sample application.
A typical analysis employed 100-300 laser shots. […] The possible identity of the ligand was determined (Narrowed down) by comparing the recorded mass of the ligand with the masses of all possible compounds formed in the library. […]

[3] = tested on: E. coli membrane proteins; test: Solid phase screening of Library 2 with labeled E. coli membrane proteins; bound proteins identified by tryptic digest and peptide mass fingerprinting; format: binding, Escherichia coli DH 5α-136; conditions: Library 2 ligand on bead
Method: A 400 mL culture of Escherichia coli DH 5α-136 (Carlsberg Research Center Collection) was prepared according to the procedures described in Hanahan, 1985, In: DNA Cloning, Vol 1, Glover, D., ed., IRL Press Ltd, pp. 109-135. […]. The media containing extracellular protein was retained and the pellet washed once with PBS, pH 7.6 (cellular weight=2.22g).
Isolation of E. coli membrane proteins was achieved through modification of published literature procedures: Auer, et al., 2001, Biochemistry, 40:6628-6635, and Molloy, et al., 2000, Eur. J. Biochem. 267:2871-2881. After incubation of E. coli cells for 2 days, washed cells were scraped from plates and centrifuged as described above for Example 10. The cell pellet (approximately 1 g) was suspended in 50 mM Tris HCl, pH 7.5 and pressed (2×) in a French Press at 1500 Psi. The resulting suspension was centrifuged at 2500×g for 10 minutes. The ice cold supernatant was diluted with 2.5 ml of ice-cold 0.1 M sodium carbonate buffer 11 and the solution stirred on ice for 1 hour. Ultracentrifugation was then carried out at 115, 000×g for 1 to 1.5 hours at 4° C., yielding Pellet 1 and Supernatant 1. The membrane pellet 1 was resuspended in 50 mM Tris HCl, pH 7.5 and the pellet was recollected after centrifugation for an additional 20 minutes at 115,000×g, yielding Pellet 2 and supernatant 2. Pellet 2 was solubilized in 50 mM Tris HCl, pH 7.5 containing 10 MM imidazole, 0.5 mM PMSF, 20% glycerol, and 1% Dodecyl Maltoside (DM) or 33 mM Octyl Glucoside (OG) for 30 mninutes at 4° C. The suspension was then centrifuged for 10,000 g for 30 minutes. The pellet and supernatant obtained were labeled Pellet 3 and supernatant 3.
The protein was labeled with amino reactive succinylanthranilate dye (blue) DDM (0.49 mg dye) and OG (0.03 mg dye) according to the same protocol used in the extracellular labeling described above for Example 12. The labeling stopping reaction (hydroxylamine hydrochloride addition) was not used in this case, to avoid dilution of the protein. The mixture was dialyzed overnight against 10 mM PBS buffer, pH 6.8 containing 0.01 MM ZnCl2, 0.01 mM CaCl2, 0.01 mM MnCl2, and 0.01 mM MnSO4, against a three time buffer change.
The ligand library was then washed, and E. coli labeled membrane protein, prepared as described above for Example 13, was added (0.1 ml). The ligand library and protein mixture was incubated overnight at room temperature.
as §2
A typical analysis employed 100-300 laser shots. […] A typical analysis employed 200-300 laser shots. The possible identity of the ligand was determined (Narrowed down) by comparing the recorded mass of the ligand with the masses of all possible compounds formed in the library. […]

[4] = tested on: Serum induced Myocytes proteins; test: Solid phase screening of Library 5 with labeled myocyte protein; format: binding, neonatal Wistar rats

Compound: CCCCCCNC(=O)C(CCCCN)NC(C(C)C)C(C)C (centres unmarked) [drawing 179]
- Identified Protein(s) [1]: Heat Shock protein 70 kDa protein 12A (Q8KOU4).

Compound: COc1ccc(Br)c(OC)c1C(=O)N1CCC(C(=O)O)(c2ccccc2)CC1 [drawing 209]
- Identified Protein(s) [2]: Cutochrome P450 2C31 (CYPIIC31) (CPCV_CAPAE,Q29478); Fatty acid-binding protein, (FABPI, P0293); Similar to the alpha subunit of protein kinase CK2 (gi 28527943).

Compound: T(Sa)-F-V-W-H
- Identified Protein(s) [3]: (P).

Compound: CC(=O)N(C[C@@H]1CN(C(C)C)[C@H]2c3ccccc3C(=O)N12)[C@H]1CCCCN(CC(=O)O)C1=O [HY7]
- Identified Protein(s) [4]: Zinc finger protein 339 (Q9BRPO); DNA repair protein RAD52 homolog (P43351).

Compound: O=C(O)CC(NC(=O)c1ccc(-c2ccco2)o1)c1ccc(-c2ccccc2)cc1 (centres unmarked)
- Identified Protein(s) [2]: Thyroid receptor interacting protein 11 (TRIP- 11,Q15643); Unnamed protein product (gi 26338976).

Compound: CC(C)N1CCCC(CN[C@H]2CCCCN(CC(=O)O)C2=O)N2C(=O)c3ccccc3[C@H]12 (some centres unmarked) [HY9]
- Identified Protein(s) [4]: Zinc finger protein 339 (Q9BRPO); DNA repair protein RAD52 homolog (P43351).

Compound: T(Sa)-H-W-H-L ([T(Sa)]HWHL)
- Identified Protein(s) [3]: (NaDPH) (gi 2121143).

Compound: O=C(NC1(C(=O)O)CCc2ccccc2C1)c1cccc(Br)n1 (centres unmarked)
- Identified Protein(s) [2]: Gap junction beta-5 protein (Connexin 31.1), (Q02739); Hypothetical protein XP1'288677 )gi 208598980).

Compound: COc1ccc(Br)c(OC)c1C(=O)N[C@@H](Cc1c[nH]c2ccccc12)C(=O)O
- Identified Protein(s) [2]: Cutochrome P450 2C31 (CYPIIC31) (CPCV_CAPAE,Q29478); Fatty acid-binding protein, (FABPI, P0293); Similar to the alpha subunit of protein kinase CK2 (gi 28527943).

Compound: T(Sa)-H-W-V-V
- Identified Protein(s) [3]: (M).

Compound: T(Sa)-F-G-L-M
- Identified Protein(s) [3]: (M).

Compound: T(Sa)-H-I-G-Y
- Identified Protein(s) [3]: 16129807/15831818) (LA, M)

Compound: CC(=O)N(C[C@@H]1CN(Cc2ccc(C(=O)O)cc2)[C@H]2c3ccccc3C(=O)N12)C1(C(=O)O)CCCC1 [HY6]
- Identified Protein(s) [4]: Myosin chain (Q63358); NF-kappa B-repressing factor (Transcription factor ITBA4 protein) (O15226).

Compound: CC(C)C(NC(CCCCN)C(=O)NCC(=O)O)C(C)C (centres unmarked)
- Identified Protein(s) [1]: Glycogen ssynthase kinase-3 beta factor (AQ9WV60).

Compound: COc1ccc(Br)c(OC)c1C(=O)N1CCC(C(=O)O)(c2ccccc2)CC1 [drawing 202]
- Identified Protein(s) [2]: Centaurin gamma (3) (Q96P47); Poly [ADP-ribose] poly- merase-1 (PARP-1) (ADPRT) (NAD(+) ADP- ribosyltransferase-1) (Poly[ADP-ribose] synthease-1) (P09874); Aortic preferentially expressed protein 1 (APEG-1) Aortic preferentially expressed protein 1 (APG1_RAT, Q63638).

Compound: CCC(C)C(=O)N(C[C@@H]1CN(C(C)C)[C@H]2c3ccccc3C(=O)N12)[C@H]1CCCCN(CC(=O)O)C1=O (some centres unmarked) [HY8]
- Identified Protein(s) [4]: Zinc finger protein 339 (Q9BRPO); DNA repair protein RAD52 homolog (P43351).

Compound: CCOC(=O)C(CCc1ccccc1)NC(CCCCN)C(=O)N1CCC[C@H]1C(=O)O (some centres unmarked) [drawing 175]
- Identified Protein(s) [1]: Angiotensin converting enzyme (P22967); U2 nuclear ribonucleoprotein auxiliary factor (gi 2842676).
